Assay results taken from ChEMBL document CHEMBL1129770 (Bioorg Med Chem Lett, 1996).
Starred links: 1 amine or outer side, 2 acyl side, 3 side chain; linkers in the order of their positions; H or OH if unused. Residues, ends and D or L forms follow the SMILES beside them. Suc = O=C(CCC(=O)[*:2])[*:1]

Columns and labels:
[1] = biological target: T1, Endothelin receptor type B (Sus scrofa, UniProt P35463); experiment: Ability to inhibit [125I]ET-3 binding to the Endothelin B receptor from porcine lung membranes was evaluated; format: tissue-based
T1 sequence (P35463 whole entry): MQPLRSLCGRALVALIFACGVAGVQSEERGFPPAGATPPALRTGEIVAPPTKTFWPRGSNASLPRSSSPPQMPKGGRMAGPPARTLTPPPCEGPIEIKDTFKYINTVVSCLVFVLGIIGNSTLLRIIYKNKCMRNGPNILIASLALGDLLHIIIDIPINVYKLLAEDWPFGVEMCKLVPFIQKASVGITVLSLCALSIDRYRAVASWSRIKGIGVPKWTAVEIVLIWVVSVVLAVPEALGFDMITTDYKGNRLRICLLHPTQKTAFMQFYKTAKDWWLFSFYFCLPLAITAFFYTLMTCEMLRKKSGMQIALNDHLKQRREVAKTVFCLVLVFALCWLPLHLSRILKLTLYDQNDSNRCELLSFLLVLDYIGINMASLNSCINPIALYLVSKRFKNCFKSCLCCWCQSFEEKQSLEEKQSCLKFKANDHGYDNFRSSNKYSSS

Bos taurus = species: Bos taurus; experiment: Ability to inhibit 3H substance P binding to bovine retina was evaluated; format: functional
Endothelin-1 receptor = biological target: T2, Endothelin-1 receptor (Sus scrofa, UniProt Q29010); experiment: Ability to inhibit [125I]ET1 binding to the Endothelin A receptor from porcine lung membranes was evaluated; format: tissue-based
T2 sequence (Q29010 whole entry): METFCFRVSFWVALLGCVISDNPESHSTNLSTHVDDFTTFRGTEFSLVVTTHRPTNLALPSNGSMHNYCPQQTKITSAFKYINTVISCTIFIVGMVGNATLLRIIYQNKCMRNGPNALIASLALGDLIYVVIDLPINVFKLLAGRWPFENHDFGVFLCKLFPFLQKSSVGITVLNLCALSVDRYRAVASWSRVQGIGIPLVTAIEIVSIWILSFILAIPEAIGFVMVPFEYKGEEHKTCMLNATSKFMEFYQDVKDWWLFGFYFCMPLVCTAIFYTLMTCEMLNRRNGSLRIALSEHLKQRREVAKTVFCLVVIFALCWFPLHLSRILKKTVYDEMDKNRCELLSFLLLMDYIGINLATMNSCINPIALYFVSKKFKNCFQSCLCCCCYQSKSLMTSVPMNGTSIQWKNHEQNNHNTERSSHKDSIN

SMILES | Ki [1] [nM] | IC50 (Bos taurus) [nM] | Ki (Endothelin-1 receptor) [nM]
Cc1cc(C)cc(C(=O)N(C)[C@H](Cc2ccccc2)C(=O)NCCc2c[nH]c3ccccc23)c1 | 5 | 800 | –
O=C(N[C@@H](Cc1c[nH]c2ccccc12)C(=O)O)C1CC1c1ccccc1 (stereo not given in full) | 16 | – | –
Cc1cc(C)cc(C(=O)N(C)[C@H](Cc2ccccc2)C(=O)N[C@@H](Cc2c[nH]c3ccccc23)C(=O)O)c1 | 36 | 2000 | 11000
Cc1cc(C)cc(C(=O)N(C)[C@H](Cc2ccc(-c3ccccc3)cc2)C(=O)N[C@@H](Cc2c[nH]c3ccccc23)C(=O)O)c1 | – | > 10000 | –
CC[C@H](C)[C@H](NC(=O)[C@H](CC(=O)O)NC(=O)[C@H](CC(C)C)NC(=O)[C@H](Cc1c[nH]cn1)NC(=O)[C@H](C)NC(=O)[C@H](Cc1ccccc1)NC(=O)[C@H](Cc1ccc(O)cc1)NC(=O)CNC(=O)[C@H](C)NC(=O)[C@H](CCC(=O)O)NC(=O)CCC(=O)O)C(=O)N[C@H](C(=O)N[C@@H](Cc1c[nH]c2ccccc12)C(=O)O)[C@@H](C)CC (Suc-EAGYFAHLDIIW-OH) | 0.91 | – | 1300
CC[C@H](C)[C@H](NC(=O)[C@H](CC(=O)O)NC(=O)[C@H](CC(C)C)NC(=O)[C@H](Cc1cnc[nH]1)NC(=O)[C@H](C)NC(=O)[C@H](Cc1ccccc1)NC(=O)CNC(=O)[C@@H](NC(=O)[C@H](C)NC(=O)[C@H](CCC(=O)O)NC(=O)CCC(=O)O)C(C)C)C(=O)N[C@H](C(=O)N[C@@H](Cc1c[nH]c2ccccc12)C(=O)O)[C@@H](C)CC (Suc-EAVGFAHLDIIW-OH) | 11 | – | 5000
CC[C@H](C)[C@H](NC(=O)[C@H](CC(=O)O)NC(=O)[C@H](CC(C)C)NC(=O)CNC(=O)[C@H](C)NC(=O)[C@H](Cc1ccccc1)NC(=O)[C@H](Cc1ccc(O)cc1)NC(=O)[C@@H](NC(=O)[C@H](C)NC(=O)[C@H](CCC(=O)O)NC(=O)CCC(=O)O)C(C)C)C(=O)N[C@H](C(=O)N[C@@H](Cc1c[nH]c2ccccc12)C(=O)O)[C@@H](C)CC (Suc-EAVYFAGLDIIW-OH) | 1 | – | 250
CC[C@H](C)[C@H](NC(=O)[C@H](CC(=O)O)NC(=O)CNC(=O)[C@H](Cc1c[nH]cn1)NC(=O)[C@H](C)NC(=O)[C@H](Cc1ccccc1)NC(=O)[C@H](Cc1ccc(O)cc1)NC(=O)[C@@H](NC(=O)[C@H](C)NC(=O)[C@H](CCC(=O)O)NC(=O)CCC(=O)O)C(C)C)C(=O)N[C@H](C(=O)N[C@@H](Cc1c[nH]c2ccccc12)C(=O)O)[C@@H](C)CC (Suc-EAVYFAHGDIIW-OH) | 5.9 | – | > 10000
CC[C@H](C)[C@H](NC(=O)CNC(=O)[C@H](CC(=O)O)NC(=O)[C@H](CC(C)C)NC(=O)[C@H](Cc1cnc[nH]1)NC(=O)[C@H](C)NC(=O)[C@H](Cc1ccccc1)NC(=O)[C@H](Cc1ccc(O)cc1)NC(=O)[C@@H](NC(=O)[C@H](C)NC(=O)[C@H](CCC(=O)O)NC(=O)CCC(=O)O)C(C)C)C(=O)N[C@@H](Cc1c[nH]c2ccccc12)C(=O)O (Suc-EAVYFAHLDGIW-OH) | 180 | – | > 10000
CC[C@H](C)[C@H](NC(=O)[C@H](CC(=O)O)NC(=O)[C@H](CC(C)C)NC(=O)[C@H](Cc1cnc[nH]1)NC(=O)[C@H](C)NC(=O)[C@H](Cc1ccccc1)NC(=O)[C@H](Cc1ccc(O)cc1)NC(=O)[C@@H](NC(=O)[C@H](C)NC(=O)[C@H](CCC(=O)O)NC(=O)CCC(=O)O)C(C)C)C(=O)NCC(=O)N[C@@H](Cc1c[nH]c2ccccc12)C(=O)O (Suc-EAVYFAHLDIGW-OH) | 5200 | – | > 10000
CC[C@H](C)[C@H](NC(=O)[C@H](CC(=O)O)NC(=O)[C@H](CC(C)C)NC(=O)[C@H](Cc1cnc[nH]1)NC(=O)[C@H](C)NC(=O)[C@H](Cc1ccccc1)NC(=O)[C@H](Cc1ccc(O)cc1)NC(=O)[C@@H](NC(=O)[C@H](C)NC(=O)[C@H](CCC(=O)O)NC(=O)CCC(=O)O)C(C)C)C(=O)N[C@H](C(=O)NCC(=O)O)[C@@H](C)CC (Suc-EAVYFAHLDIIG-OH) | > 10000 | – | > 10000
CC[C@H](C)[C@H](NC(=O)[C@H](CC(=O)O)NC(=O)[C@H](CC(C)C)NC(=O)[C@H](Cc1c[nH]cn1)NC(=O)[C@H](C)NC(=O)[C@H](Cc1ccccc1)NC(=O)[C@H](Cc1ccc(O)cc1)NC(=O)[C@@H](NC(=O)[C@H](C)NC(=O)[C@H](CCC(=O)O)NC(=O)CCC(=O)O)C(C)C)C(=O)N[C@H](C(=O)N[C@@H](Cc1c[nH]c2ccccc12)C(=O)O)[C@@H](C)CC (Suc-EAVYFAHLDIIW-OH) | 0.077 | – | 620
CC[C@H](C)[C@H](NC(=O)CNC(=O)[C@H](CC(C)C)NC(=O)[C@H](Cc1cnc[nH]1)NC(=O)[C@H](C)NC(=O)[C@H](Cc1ccccc1)NC(=O)[C@H](Cc1ccc(O)cc1)NC(=O)[C@@H](NC(=O)[C@H](C)NC(=O)[C@H](CCC(=O)O)NC(=O)CCC(=O)O)C(C)C)C(=O)N[C@H](C(=O)N[C@@H](Cc1c[nH]c2ccccc12)C(=O)O)[C@@H](C)CC (Suc-EAVYFAHLGIIW-OH) | 0.25 | – | 96
CC[C@H](C)[C@H](NC(=O)[C@H](CC(=O)O)NC(=O)[C@H](CC(C)C)NC(=O)[C@H](Cc1cnc[nH]1)NC(=O)CNC(=O)[C@H](Cc1ccccc1)NC(=O)[C@H](Cc1ccc(O)cc1)NC(=O)[C@@H](NC(=O)[C@H](C)NC(=O)[C@H](CCC(=O)O)NC(=O)CCC(=O)O)C(C)C)C(=O)N[C@H](C(=O)N[C@@H](Cc1c[nH]c2ccccc12)C(=O)O)[C@@H](C)CC (Suc-EAVYFGHLDIIW-OH) | 5.3 | – | 2000
CC[C@H](C)[C@H](NC(=O)[C@H](CC(=O)O)NC(=O)[C@H](CC(C)C)NC(=O)[C@H](Cc1c[nH]cn1)NC(=O)[C@H](C)NC(=O)CNC(=O)[C@H](Cc1ccc(O)cc1)NC(=O)[C@@H](NC(=O)[C@H](C)NC(=O)[C@H](CCC(=O)O)NC(=O)CCC(=O)O)C(C)C)C(=O)N[C@H](C(=O)N[C@@H](Cc1c[nH]c2ccccc12)C(=O)O)[C@@H](C)CC (Suc-EAVYGAHLDIIW-OH) | 260 | – | > 10000
CC[C@H](C)[C@H](NC(=O)[C@H](CC(=O)O)NC(=O)[C@H](CC(C)C)NC(=O)[C@H](Cc1cnc[nH]1)NC(=O)[C@@H]1CSSC[C@H](N)C(=O)N[C@@H](CO)C(=O)N[C@H]2CSSC[C@H](NC(=O)[C@H](CCC(=O)O)NC(=O)[C@H](CCCCN)NC(=O)[C@H](CC(=O)O)NC(=O)[C@H](CCSC)NC(=O)[C@H](CC(C)C)NC(=O)[C@H](CO)NC(=O)[C@H](CO)NC2=O)C(=O)N[C@@H](C(C)C)C(=O)N[C@@H](Cc2ccc(O)cc2)C(=O)N[C@@H](Cc2ccccc2)C(=O)N1)C(=O)N[C@H](C(=O)N[C@@H](Cc1c[nH]c2ccccc12)C(=O)O)[C@@H](C)CC [ENDOTHELIN] | – | – | 0.04
